Test results published in patent US9877501B2, “Stevia composition” (PureCircle Sdn Bhd, priority 2011, dated 2018).
Read-outs that look alike come from different tables or passages of the source.

Legend:
[1] = cited from earlier work
[2] = carbonated beverages; Chang and Cook 1983; cited from earlier work
[3] = Sensory evaluation of zero-calorie carbonated beverage samples by 20 panelists; conditions: 0.050% stevia composition
Method: The sensory properties were evaluated by 20 panelists.

[4] = sensory evaluations, Crammer and Ikan 1986

Row | Compound | times sweeter than sucrose ([1]; Tanaka 1987, Phillips 1989) | times sweeter than sucrose [1, 4] | heat and pH stability [2] | also measured
1 | C=C1C[C@@]23CC[C@H]4[C@@](C)(CCC[C@@]4(C)C(=O)O[C@@H]4O[C@H](CO)[C@@H](O)[C@H](O)[C@H]4O)[C@@H]2CC[C@]1(O[C@@H]1O[C@H](CO)[C@@H](O)[C@H](O)[C@H]1O[C@@H]1O[C@@H](C)[C@H](O)[C@@H](O)[C@H]1O)C3 [Dulcoside A] | 30 times | – | – | –
2 | C=C1C[C@@]23CC[C@H]4[C@@](C)(CCC[C@@]4(C)C(=O)O[C@@H]4O[C@H](CO)[C@@H](O)[C@H](O)[C@H]4O)[C@@H]2CC[C@]1(O[C@@H]1O[C@H](CO)[C@@H](O)[C@H](O[C@@H]2O[C@H](CO)[C@@H](O)[C@H](O)[C@H]2O)[C@H]1O[C@@H]1O[C@H](CO)[C@@H](O)[C@H](O)[C@H]1O)C3 [Reb A, rebaudioside A] | – | 350-450 times | confirmed their heat and pH stability | sensory attributes among major steviol glycosides ([1]; Tanaka 1987, Phillips 1989): the least astringent, the least bitter, and the least persistent aftertaste; Number of panelists detected the attribute: Aftertaste [3]: 12; Number of panelists detected the attribute: Astringent taste [3]: 9; Number of panelists detected the attribute: Bitter taste [3]: 10
3 | C=C1C[C@@]23CC[C@H]4[C@@](C)(CCC[C@@]4(C)C(=O)O[C@@H]4O[C@H](CO)[C@@H](O)[C@H](O)[C@H]4O)[C@@H]2CC[C@]1(O[C@@H]1O[C@H](CO)[C@@H](O)[C@H](O)[C@H]1O[C@@H]1O[C@H](CO)[C@@H](O)[C@H](O)[C@H]1O)C3 [stevioside] | 110-270 times | – | confirmed their heat and pH stability | –
4 | Rebaudioside B [reb B] | – | 300-350 times | – | –
5 | rebaudioside C | 40-60 times | – | – | –
